Results taken from ChEMBL document CHEMBL5352410, “Discovery of novel selenium-containing azole derivatives as antifungal agents by exploiting the hydrophobic cleft of CYP51” (Eur J Med Chem, 2022).
≈ marks a conversion by molar mass, not a printed value.

How the values were obtained:
Candida albicans [1] = experiment: Fungicidal activity against Candida albicans; format: functional
Candida albicans [2] = experiment: Antifungal activity against Candida albicans by CLSI based broth microdilution method; format: functional
Nakaseomyces glabratus = experiment: Antifungal activity against Candida glabrata by CLSI based broth microdilution method; format: functional
Candida albicans [3] = experiment: Fungicidal activity against Candida albicans sc5314; format: functional
Candida albicans [4] = experiment: Fungicidal activity against FCZ-resistant Candida albicans 632; format: functional
[Candida] zeylanoides = Antifungal activity against Candida zeylanoides by CLSI based broth microdilution method; format: functional; conditions: Dujonia zeylanoides
Candida albicans [5] = experiment: Fungicidal activity against FCZ-resistant Candida albicans 901; format: functional
Candida albicans [6] = experiment: Antifungal activity against FCZ-resistant Candida albicans 901 by CLSI based broth microdilution method; format: functional
Candida albicans [7] = experiment: Fungicidal activity against FCZ-resistant Candida albicans 17#; format: functional
Candida albicans [8] = experiment: Fungicidal activity against FCZ-resistant Candida albicans CaR; format: functional
Candida albicans [9] = experiment: Antifungal activity against FCZ-resistant Candida albicans CaR by CLSI based broth microdilution method; format: functional
Pichia kudriavzevii = experiment: Antifungal activity against Pichia kudriavzevii by CLSI based broth microdilution method; format: functional
Aspergillus fumigatus = experiment: Antifungal activity against Aspergillus fumigatus by CLSI based broth microdilution method; format: functional
Candida albicans [10] = experiment: Antifungal activity against FCZ-resistant Candida albicans 904 by CLSI based broth microdilution method; format: functional
Candida parapsilosis = experiment: Antifungal activity against Candida parapsilosis by CLSI based broth microdilution method; format: functional; conditions: Lodderomyces parapsilosis
Candida albicans [11] = experiment: Antifungal activity against Candida albicans sc5314 by CLSI based broth microdilution method; format: functional
Cryptococcus neoformans = experiment: Antifungal activity against Cryptococcus neoformans by CLSI based broth microdilution method; format: functional
Candida albicans [12] = experiment: Fungicidal activity against FCZ-resistant Candida albicans 904; format: functional
Candida albicans [13] = experiment: Antifungal activity against FCZ-resistant Candida albicans 17# by CLSI based broth microdilution method; format: functional
Candida albicans [14] = experiment: Antifungal activity against FCZ-resistant Candida albicans 632 by CLSI based broth microdilution method; format: functional
[15] = Cytotoxicity against human HL-60 cells by MTT assay; format: toxicity, cell-based
[16] = Cytotoxicity against human PC-3 cells by MTT assay; format: toxicity, cell-based

Row | Compound | MFC (Candida albicans [1]) [µg/mL] | MIC (Candida albicans [2]) [µg/mL] | MIC (Nakaseomyces glabratus) [µg/mL] | MFC (Candida albicans [3]) [µg/mL] | MFC (Candida albicans [4]) [µg/mL] | MIC ([Candida] zeylanoides) [µg/mL] | MFC (Candida albicans [5]) [µg/mL] | MIC (Candida albicans [6]) [µg/mL] | MFC (Candida albicans [7]) [µg/mL] | MFC (Candida albicans [8]) [µg/mL] | MIC (Candida albicans [9]) [µg/mL] | MIC (Pichia kudriavzevii) [µg/mL] | MIC (Aspergillus fumigatus) [µg/mL] | MIC (Candida albicans [10]) [µg/mL] | MIC (Candida parapsilosis) [µg/mL] | MIC (Candida albicans [11]) [µg/mL] | MIC (Cryptococcus neoformans) [µg/mL] | MFC (Candida albicans [12]) [µg/mL] | MIC (Candida albicans [13]) [µg/mL] | MIC (Candida albicans [14]) [µg/mL] | further results
1 | Clc1ccc(C(Cn2ccnc2)[Se]C(Cn2ccnc2)c2ccc(Cl)cc2Cl)c(Cl)c1 (stereo not drawn) | > 64 | 16 (≈ 28.6 µM) | 64 (≈ 114 µM) | 64 (≈ 114 µM) | > 64 | 8 (≈ 14.3 µM) | > 64 | 64 (≈ 114 µM) | > 64 | > 64 | 2 (≈ 3.58 µM) | 128 (≈ 229 µM) | > 64 | 16 (≈ 28.6 µM) | 64 (≈ 114 µM) | 2 (≈ 3.58 µM) | 64 (≈ 114 µM) | 32 (≈ 57.2 µM) | 2 (≈ 3.58 µM) | 16 (≈ 28.6 µM) | –
2 | c1ccc(C(Cn2ccnc2)[Se]C(Cn2ccnc2)c2ccccc2)cc1 (stereo not drawn) | 64 (≈ 152 µM) | 8 (≈ 19 µM) | 16 (≈ 38 µM) | 8 (≈ 19 µM) | 16 (≈ 38 µM) | 4 (≈ 9.49 µM) | 16 (≈ 38 µM) | 8 (≈ 19 µM) | > 64 | > 64 | 4 (≈ 9.49 µM) | 16 (≈ 38 µM) | > 64 | 4 (≈ 9.49 µM) | 4 (≈ 9.49 µM) | 4 (≈ 9.49 µM) | 64 (≈ 152 µM) | 8 (≈ 19 µM) | 0.5 (≈ 1.19 µM) | 8 (≈ 19 µM) | –
3 | Clc1ccc(C(Cn2ccnn2)[Se]C(Cn2ccnn2)c2ccc(Cl)cc2Cl)c(Cl)c1 (stereo not drawn) | – | > 64 | 64 (≈ 114 µM) | – | – | 32 (≈ 57 µM) | – | > 64 | – | – | 128 (≈ 228 µM) | > 64 | > 64 | > 64 | > 64 | > 64 | 64 (≈ 114 µM) | – | 4 (≈ 7.13 µM) | > 64 | –
4 | Fc1ccc(C(Cn2ccnc2)[Se][Se]C(Cn2ccnc2)c2ccc(F)cc2F)c(F)c1 (stereo not drawn) | 32 (≈ 55.9 µM) | – | – | 16 (≈ 28 µM) | 16 (≈ 28 µM) | – | 8 (≈ 14 µM) | 4 (≈ 6.99 µM) | > 64 | > 64 | 4 (≈ 6.99 µM) | – | – | 8 (≈ 14 µM) | – | – | – | 8 (≈ 14 µM) | 8 (≈ 14 µM) | 8 (≈ 14 µM) | –
5 | Fc1ccc(C(Cn2ccnn2)[Se]C(Cn2ccnn2)c2ccc(F)cc2F)c(F)c1 (stereo not drawn) | – | > 64 | 64 (≈ 129 µM) | – | – | 1 (≈ 2.02 µM) | – | > 64 | – | – | 64 (≈ 129 µM) | > 64 | > 64 | > 64 | > 64 | > 64 | 32 (≈ 64.6 µM) | – | 4 (≈ 8.08 µM) | > 64 | –
6 | COc1cccc2c1C(=O)c1c(O)c3c(c(O)c1C2=O)C[C@@](O)(C(=O)CO)C[C@@H]3O[C@H]1C[C@H](N)[C@H](O)[C@H](C)O1 [DOXORUBICIN] | – | – | – | – | – | – | – | – | – | – | – | – | – | – | – | – | – | – | – | – | IC50 [15]: < 125 nM
7 | Fc1ccc(C(Cn2ccnc2)[Se]C(Cn2ccnc2)c2ccc(F)cc2)cc1 (stereo not drawn) | 64 (≈ 140 µM) | 4 (≈ 8.75 µM) | 64 (≈ 140 µM) | 16 (≈ 35 µM) | 16 (≈ 35 µM) | 4 (≈ 8.75 µM) | 64 (≈ 140 µM) | 16 (≈ 35 µM) | > 64 | > 64 | 2 (≈ 4.37 µM) | 32 (≈ 70 µM) | > 64 | 32 (≈ 70 µM) | 16 (≈ 35 µM) | 2 (≈ 4.37 µM) | 64 (≈ 140 µM) | > 64 | 4 (≈ 8.75 µM) | 4 (≈ 8.75 µM) | –
8 | CC(=O)O[C@H]1C(=O)[C@@]2(C)[C@H]([C@H](OC(=O)c3ccccc3)[C@]3(O)C[C@H](OC(=O)[C@H](O)[C@@H](NC(=O)c4ccccc4)c4ccccc4)C(C)=C1C3(C)C)[C@]1(OC(C)=O)CO[C@@H]1C[C@@H]2O [PACLITAXEL] | – | – | – | – | – | – | – | – | – | – | – | – | – | – | – | – | – | – | – | – | IC50 [16]: < 25 nM
9 | Clc1ccc(C(Cn2cnnn2)[Se]C(Cn2cnnn2)c2ccc(Cl)cc2)cc1 (stereo not drawn) | – | > 64 | > 64 | – | – | > 64 | – | > 64 | – | – | > 64 | > 64 | > 64 | > 64 | > 64 | > 64 | > 64 | – | > 64 | > 64 | –
